Data as given in patent publication US7387888B2, “Coronamycins” (priority 2004, dated 2008).
In brackets after ≈: the same amount, converted by molar mass.

What was measured:
[1] = system: Plasmodium falciparum strain CSC-1 (Honduras); test: antimalarial assay against Plasmodium falciparum (3H-phenylalanine uptake); type: cell-based; details: read-out: IC50 against Plasmodium falciparum
Method: All cultures were maintained in a microaerophilic environment containing 1% oxygen/5% CO2 with the balance being nitrogen. […] Control cultures contained the same quantity of DMSO or water as that used in the experimental trials. Data were reported as IC50 values.
Parasite cultures, adjusted to 0.1-0.5% parasitemia by addition of freshly washed human erythrocytes, were pipetted into 96 well culture plates by adding 10 μl of a 50% cell suspension to each well to give a final volume of 5 μl of packed erythrocytes per well. The test compounds in RPMI 1640 were added at 95 μl per well to four wells per each concentration of test compound. Quadruplicate control wells were treated similarly with DMSO or water added without the test compounds present. The cultures were gassed and exposed to radiolabeled ^3[H]-phenylalanine (1 microcurie per well) for the final 24 hour of treatment. Cultures were monitored for bacterial contamination and for parasite viability by Giemsa staining of thin films. Ultimately, the cells were harvested onto glass-fiber filters, followed by liquid scintillation counting. The IC50 for each compound was determined by linear regression analysis using 50% of the control counts as the regression point. The experiment was repeated three times, the data averaged, and the standard deviation of the mean determined.

[2] = system: human cancer cell line BT20 (breast epithelial cancer); test: CellTiter 96 cell proliferation assay, BT20; type: cell-based; details: BT-20, 50% viability, 96 hours incubation
Method: (§2) The BT20 cells were grown in the medium recommended by ATCC and were seeded into 96 well clear flat bottom plates at 3000 cells per well in 100 μl. The primary mammary cells were cultured as recommended by the manufacturer in mammary epithelial cell growth media (MEGM®) and were seeded at 3200 cells per well in 100 μl.
(§3) Each plate also contained some wells with cells plus medium only and some wells with medium only as controls. After addition of the compounds, the plates were incubated at 37° C. for 48 hours or 96 hours for the HMEC and BT20 cell lines, respectively.
(§4) The proliferation assay was performed using the manufacturer's protocols; a 20:1 solution of MTS and PMS was mixed and 10 to 40 μl was added to each well depending on the total volume in the wells. The plates were incubated at 37° C. for one to four hours, and the OD490 was determined. The OD reading of all wells was corrected for background by subtracting the reading of wells containing medium only. The wells containing cells only were used as a control for 100% viability.

in vitro = details: human, primary mammary epithelial cells (HMEC)
Method: as §2, §3, §4

[3] = system: Candida tropicalis (ATCC 750); test: microbroth dilution assay of human pathogenic yeasts (NCCLS M27A, Alamar Blue); type: cell-based; details: 24 to 48 hours
Method: (§1) Microbroth dilution assays of human pathogenic yeasts were performed as described in the NCCLS M27A (NCCLS, 1997) with the addition of Alamar Blue (Trek Diagnostics Systems, Inc., Westlake, Ohio) as a colorimetric indicator of viability (Espinel-Ingroff et al., 1999, J. Clin. Microbiol. 37: 591-595). All isolates were obtained from the ATCC. The assays were performed in sterile 96 well plates. The total volume per well was 100 μl. Two wells were inoculated for a given concentration. The MIC was defined as that concentration of compound resulting in no visible growth of the test organism after 24 to 48 hours of incubation with the exception of Cryptococcus neoformans which was read at 72 hours. Flucytosine was included as a control antifungal compound.

[4] = system: Candida parapsilosis (ATCC 22019); test: as above; type: cell-based; details: 24 to 48 hours
Method: as §1

[5] = system: Candida parapsilosis (ATCC 90018); test: as above; type: cell-based; details: 24 to 48 hours
Method: as §1

[6] = system: Cryptococcus neoformans (ATCC 32045); test: as above; type: cell-based; details: read at 72 hours
Method: as §1

[7] = system: Candida albicans (ATCC 24433); test: as above; type: cell-based; details: 24 to 48 hours
Method: as §1

[8] = system: Candida albicans (ATCC 90028); test: as above; type: cell-based; details: 24 to 48 hours
Method: as §1

[9] = system: Candida krusei (ATCC 6258); test: as above; type: cell-based; details: 24 to 48 hours
Method: as §1

[10] = system: Saccharomyces cerevisiae (ATCC 9763); test: as above; type: cell-based; details: 24 to 48 hours
Method: as §1

CCN(CC)CCCC(C)Nc1ccnc2cc(Cl)ccc12 (centres unmarked) [chloroquine]
IC50 [1]: 7 ng/mL (≈ 0.0219 µM)

CC(=O)O[C@H]1C(=O)[C@@]2(C)[C@H]([C@H](OC(=O)c3ccccc3)[C@]3(O)C[C@H](OC(=O)[C@H](O)[C@@H](NC(=O)c4ccccc4)c4ccccc4)C(C)=C1C3(C)C)[C@]1(OC(C)=O)CO[C@@H]1C[C@@H]2O [taxol]
IC50 [2]: 9 ng/mL (≈ 0.0105 µM)
IC50 at 48 h (in vitro): 25000 to 30000 ng/mL (≈ 29.3 to 35.1 µM)

Nc1[nH]c(=O)ncc1F [Flucytosine]
MIC [3]: <=0.06 μml^−1
MIC [4]: 0.5 μml^−1
MIC [5]: 0.12 μml^−1
MIC [6]: 8 μml^−1
MIC [7]: 1.0 μml^−1
MIC [8]: 0.5 μml^−1
MIC [9]: 16 μml^−1
MIC [10]: <=0.06 μml^−1
